According to ChEMBL document CHEMBL1123310, “Spin probes as mechanistic inhibitors and active site probes of thymidylate synthetase” (J Med Chem, 1986):

Assays:
[1] = molecular target: T1, Thymidylate synthase (Lactobacillus casei) (UniProt P00469); assay: The high gain spectrum and that of thymidylate synthetase both at high and low peaks indicating its binding activity; details: Lacticaseibacillus casei
T1 sequence (whole entry): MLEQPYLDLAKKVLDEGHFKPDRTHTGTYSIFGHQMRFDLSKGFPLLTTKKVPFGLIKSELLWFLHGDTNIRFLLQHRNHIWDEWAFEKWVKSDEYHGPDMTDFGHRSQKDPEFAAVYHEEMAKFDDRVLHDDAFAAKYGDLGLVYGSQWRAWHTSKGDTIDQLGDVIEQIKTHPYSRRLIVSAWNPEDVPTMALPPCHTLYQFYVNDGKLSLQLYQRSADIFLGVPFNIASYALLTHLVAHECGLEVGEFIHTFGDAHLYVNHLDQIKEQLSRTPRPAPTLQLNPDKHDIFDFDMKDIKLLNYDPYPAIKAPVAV

[2] = molecular target: T1, Thymidylate synthase (Lactobacillus casei); assay: Association constant (Kassoc) towards Thymidylate synthetase binding site by electron spin resonance; details: Lacticaseibacillus casei
[3] = molecular target: T2, Thymidylate synthase (Lactobacillus casei, UniProt P00469); assay: In vitro inhibitory activity against Thymidylate synthetase was evaluated; design: species or system Lacticaseibacillus casei
T2 sequence (P00469 whole entry): T1 sequence (whole entry)

[4] = molecular target: T1, Thymidylate synthase (Lactobacillus casei); details: Lacticaseibacillus casei
Description: Association constant (Kassoc) towards Thymidylate synthase binding site by electron spin resonance

[5] = molecular target: T1, Thymidylate synthase (Lactobacillus casei); details: Lacticaseibacillus casei; remark: listed apart in the source
[6] = molecular target: T2, Thymidylate synthase; assay: In vitro inhibitory activity against Thymidylate synthase was evaluated; design: species or system Lacticaseibacillus casei

SMILES	2T11 [1]	K ass [2] [M⁻¹]	Ki [3] [µM]	K ass [4] [M⁻¹]	2T11 [5]	Ki [6] [µM]
CC1(C)C=C(C(=O)NC/C=C/c2cn([C@H]3C[C@H](O)[C@@H](CO)O3)c(=O)[nH]c2=O)C(C)(C)N1[O]	60	190000	9.2	–	–	–
CC1(C)CC(NC(=O)CSc2cn([C@H]3C[C@H](O)[C@@H](CO)O3)c(=O)[nH]c2=O)CC(C)(C)N1[O]	–	–	–	240000	61	89
NC/C=C/c1cn([C@H]2C[C@H](O)[C@@H](COP(=O)(O)O)O2)c(=O)[nH]c1=O	–	–	7.9	–	–	–
